Reference: patent US6440901B1, “Calcium chloride fruit blossom thinning agent” (priority 2000, dated 2002)

Key:
[1] = tested on: “Lutz” Red Delicious Apples; conditions: for Mean Fruit Area per Limb: Azwell; for Mean Fruit per 100 Clusters: fruit set
Experimental: A second field trial to test the effects of calcium chloride as a bloom thinning agent was performed at an orchard located in Azwell, Washington, by the Washington Tree Fruit Research Commission on a commercial block of a Red Delicious apple cultivar of the variety “Lutz.” Three areas of the block's apples were each treated with one of three alternative chemical thinning compounds. […] Calcium chloride was used in the second area and “Crocker's” lime and sulfur was used in the third area. A fourth area of the apple block was utilized as a control group and treated with water as a control. The treatments were all performed with conventional test methodologies and procedures. Other than the application of the thinning compounds, all four blocks were managed without differentiation.

apples = assay: Overall observations of both field trials (damage, thinning, fruit L/D); assay type: in vivo, apple
Experimental: A series of field trials comparing the calcium chloride composition of the present invention to other alternative chemical thinners were performed to verify efficacy as a bloom thinner. The trials followed labeling recommendations and best management practices for all applications. Two of these trials are discussed as follows, but are not intended to specifically limit the invention: […]

“WVC” Fuji Apples = conditions: for Mean Fruit Area per Limb: East Wenatchee, airblast spray at bloom; for Mean Fruit per 100 Clusters: fruit set
Experimental: A first field trial to test the effects of calcium chloride as a bloom thinning agent was performed in an orchard located in East Wenatchee, Washington, by the Washington Tree Fruit Research Commission on a commercial block of a Fuji apple cultivar of the variety “WVC.” Two areas of the block's apples were each treated with two alternative chemical thinning compounds. Calcium chloride was used in the first area. […] A third area of the apple block was utilized as a control group and treated with water. The treatments were all performed with conventional test methodologies and procedures.
Other than the application of the thinning compounds, all three blocks were managed without differentiation. All treatments were applied utilizing standard airblast sprayers and spreader-stickers as appropriate. The experiments were in a randomized complete block design with 2 to 4 replications. […] Results of this trial are listed in TABLE 1 and shown in the graphs of FIGS. 1 and 3.

Molecule	% Flower Clusters Blanked [1]	% Flower Clusters Doubled [1]	% Flower Clusters Singled [1]	% Flower Clusters Tripled [1]	% Flower Clusters w/4+ Fruit [1]	Mean Fruit Area per Limb [1]	Mean Fruit per 100 Clusters [1]	impact on average fruit length over diameter (L/D) ratio (apples; harvested fruit)	difference in bloom thinning between treatments (apples; with feedback on hand thinning time per tree, ATS versus calcium chloride)	% Flower Clusters Blanked (“WVC” Fuji Apples)	% Flower Clusters Doubled (“WVC” Fuji Apples)	% Flower Clusters Singled (“WVC” Fuji Apples)	% Flower Clusters Tripled (“WVC” Fuji Apples)	% Flower Clusters w/4+ Fruit (“WVC” Fuji Apples)	Mean Fruit Area per Limb (“WVC” Fuji Apples)	Mean Fruit per 100 Clusters (“WVC” Fuji Apples)
[Ca+2].[Cl-].[Cl-] [CaCl, calcium chloride]	41.7%	12.7%	44.4%	1.0%	0.2%	2.6 cm^2	73	minimally impacted	no consistent, significant differences between ATS and calcium chloride	40.0%	12.5%	45.5%	2.0%	0.1%	5.0 cm^2	79
ammonium thiosulfate [ATS, reference compound]	47.0%	12.8%	38.8%	1.5%	0.0%	2.7 cm^2	69			38.2%	11.9%	47.4%	1.9%	0.7%	5.8 cm^2	84
